Test results published in patent US20240209028A1, “CNP COMPOUNDS” (priority 2022, published 2024).
Starred links: 1 amine or outer side, 2 acyl side, 3 side chain; linkers in the order of their positions; H or OH if unused. Positions of bridges follow the written chain, without caps; N, C: chain ends. Residues, ends and D or L forms follow the SMILES beside them. *: point of attachment. C18 diacid = O=C(O)CCCCCCCCCCCCCCCCC(=O)*; γGlu = O=C(O)[C@H](CCC(=O)[*:2])N[*:1]; AEEA = NCCOCCOCC(=O)O

Key:
mouse metatarsal bones = assay: Mouse metatarsal bone dissection and culture (ex vivo bone growth); type: cell-based, mouse (NMRI); conditions: 100 nM, n=8
Description: The purpose of this study was to evaluate bone growth after administration of CNP compounds in an ex vivo mouse model.
Procedure: One-day old mouse pups (NMRI, Javier Labs France) were euthanised prior to dissection. All applicable international and internal Novo Nordisk guidelines for care and use of animals were followed. The three middle metatarsal bones were dissected out from each hind paw. The dissected bones were placed in 24-well cell culture plates and cultured in 400 μl a-Minimum Essential Media supplemented with 0.2% BSA, 1% Pen/Strep at 37° C. and 5% CO2. The bones from all animals were randomised into a control group and six CNP compound-treated groups (100 nM; n=8). The medium was changed every 2-3 days. All compounds were formulated according to the principles described in General Methods of Preparation—Method G. Compounds 9435 and 9483 were formulated in A) 5 mM sodium acetate, 250 mM glycerol, pH 4.0 while compounds 9384, 9407, 9480 and 9482 were formulated in B) 8 mM sodium phosphate, 250 mM glycerol, pH 7.4.
Digital pictures were captured on day 0, 4, 7, 11, and 14 using a digital camera attached to a Nikon microscope. The length of each metatarsal bone was measured using ImageJ software and increase in bone length was expressed as percentage change from the length measured at the day of dissection (Mean (SD)).
In Table 27, metatarsal bones were isolated from mice and cultured for up to 14 days. Length was measured every 3-4 days throughout the study and expressed as percentage change from day 0 (Mean (SD)). Statistically significant differences are indicated compared to control group (two-way ANOVA).

[1] = CNP local tolerance study in LYD pigs (s.c. injection, histopathology); type: in vivo, domestic LYD pig; conditions: for assessment for human subcutaneous administration: based on pig local tolerance
In short: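 Domestic pigs dosed s.c. mid-back, 100 or 200 μl at approx. 4400 μM, in phosphate pH 6.5 or acetate pH 4.0 buffers with glycerol or propylene glycol; saline as negative control. Sites excised 4 or 5 days post injection, H&E sections graded on 5-level scale; necrosis used as marker.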

[2] = 5 days after subcutaneous injections in the pig

Q: With `CC[C@H](C)[C@@H]1NC(=O)[C@H](CCCNC(=N)N)NC(=O)[C@H](CC(=O)O)NC(=O)[C@H](CC(C)C)NC(=O)[C@@H]2CCCN2C(=O)[C@H](CC(C)C)NC(=O)CNC(=O)[C@H](Cc2ccccc2)NC(=O)[C@@H](NC(=O)CNC(=O)[C@H](CCC(N)=O)NC(=O)[C@H](CO)NC(=O)CNC(=O)CNC(=O)[C@H](CCCCN)NC(=O)[C@H](CCCCN)NC(=O)[C@H](CCC(N)=O)NC(=O)[C@H](C)NC(=O)CNC(=O)[C@H](CCCCN)NC(=O)[C@H](Cc2ccc(O)cc2)NC(=O)COCCOCCNC(=O)COCCOCCNC(=O)COCCOCCNC(=O)COCCOCCNC(=O)CC[C@H](NC(=O)CC[C@H](NC(=O)CCCCCCCCCCCCCCCCC(=O)O)C(=O)O)C(=O)O)CSSC[C@@H](C(=O)O)NC(=O)CNC(=O)[C@H](CC(C)C)NC(=O)CNC(=O)[C@H](CO)NC(=O)[C@H](CC(C)C)NC(=O)[C@H](CO)NC(=O)CNC1=O` [compound 9435] ({C18 diacid-γGlu-γGlu-AEEA-AEEA-AEEA-AEEA}-YKGAQKKGGSQGCFGLPLDRIGSLSGLGC-OH; disulfide 13-29; C-terminus assumed) as the compound, how does the “Increase in bone length, mean (%) change from day 0” value (shortened to “Increase … (%) change from day 0”) (mouse metatarsal bones; day 4 in culture) read?
A: 36.2%

Q: What about the “Increase … (%) change from day 0” value (mouse metatarsal bones; day 7 in culture) of the same compound?
A: 47.3%

Q: What about the “Increase … (%) change from day 0” value (mouse metatarsal bones; day 11 in culture) of the same compound?
A: 53.9%

Q: And the “Increase … (%) change from day 0” value (mouse metatarsal bones; day 14 in culture)?
A: 59.2%

Q: What about the local subcutaneous necrosis [1, 2] of the same compound?
A: minimal to mild

Q: What about the “assessment for human subcutaneous administration” value (“assessment” below) [1] of the same compound?
A: acceptable

Q: For `CC[C@H](C)[C@@H]1NC(=O)[C@H](CCCNC(=N)N)NC(=O)[C@H](CC(=O)O)NC(=O)[C@H](CC(C)C)NC(=O)[C@@H]2CCCN2C(=O)[C@H](CC(C)C)NC(=O)CNC(=O)[C@H](Cc2ccccc2)NC(=O)[C@@H](NC(=O)CNC(=O)[C@H](CCC(N)=O)NC(=O)[C@H](CO)NC(=O)[C@H](CC(C)C)NC(=O)CNC(=O)[C@H](CCCCN)NC(=O)[C@H](CCCCN)NC(=O)[C@H](CCC(N)=O)NC(=O)[C@H](C)NC(=O)CNC(=O)[C@H](CCCCN)NC(=O)[C@H](Cc2ccc(O)cc2)NC(=O)COCCOCCNC(=O)COCCOCCNC(=O)COCCOCCNC(=O)COCCOCCNC(=O)CC[C@H](NC(=O)CC[C@H](NC(=O)CC[C@H](NC(=O)CCCCCCCCCCCCCCCCC(=O)O)C(=O)O)C(=O)O)C(=O)O)CSSC[C@@H](C(=O)O)NC(=O)CNC(=O)[C@H](CC(C)C)NC(=O)CNC(=O)[C@H](CO)NC(=O)[C@H](CC(C)C)NC(=O)[C@H](CO)NC(=O)CNC1=O` [compound 9480] ({C18 diacid-γGlu-γGlu-γGlu-AEEA-AEEA-AEEA-AEEA}-YKGAQKKGLSQGCFGLPLDRIGSLSGLGC-OH; disulfide 13-29), which “Increase … (%) change from day 0” value (mouse metatarsal bones; day 4 in culture) is on record?
A: 33.1%

Q: What about the “Increase … (%) change from day 0” value (mouse metatarsal bones; day 7 in culture) of the same compound?
A: 43.9%

Q: What about the “Increase … (%) change from day 0” value (mouse metatarsal bones; day 11 in culture) of the same compound?
A: 49.2%

Q: And the “Increase … (%) change from day 0” value (mouse metatarsal bones; day 14 in culture)?
A: 52.1%

Q: What about the local subcutaneous necrosis [1, 2] of the same compound?
A: no

Q: And the “assessment” value [1]?
A: acceptable

Q: For `CC[C@H](C)[C@@H]1NC(=O)[C@H](CCCNC(=N)N)NC(=O)[C@H](CC(=O)O)NC(=O)[C@H](CC(C)C)NC(=O)[C@@H]2CCCN2C(=O)[C@H](CC(C)C)NC(=O)CNC(=O)[C@H](Cc2ccccc2)NC(=O)[C@@H](NC(=O)CNC(=O)[C@H](CO)NC(=O)[C@H](CO)NC(=O)[C@H](CC(C)C)NC(=O)CNC(=O)[C@H](CCCCN)NC(=O)[C@H](CCCCN)NC(=O)[C@H](CCC(N)=O)NC(=O)[C@H](C)NC(=O)CNC(=O)[C@H](CCCCN)NC(=O)[C@H](Cc2ccc(O)cc2)NC(=O)[C@H](CCCCN)NC(=O)[C@H](CCCNC(=N)N)NC(=O)[C@H](C)NC(=O)[C@H](CCC(N)=O)NC(=O)[C@@H]2CCCN2C(=O)[C@H](Cc2c[nH]cn2)NC(=O)[C@H](CCC(=O)O)NC(=O)[C@H](CCC(N)=O)NC(=O)CC[C@H](NC(=O)CC[C@H](NC(=O)CC[C@H](NC(=O)CC[C@H](NC(=O)CC[C@H](NC(=O)CCCCCCCCCCCCCCCCC(=O)O)C(=O)O)C(=O)O)C(=O)O)C(=O)O)C(=O)O)CSSC[C@@H](C(=O)O)NC(=O)CNC(=O)[C@H](CC(C)C)NC(=O)CNC(=O)[C@H](CO)NC(=O)[C@H](CC(C)C)NC(=O)[C@H](CO)NC(=O)CNC1=O` [compound 9482] ({C18 diacid-γGlu-γGlu-γGlu-γGlu-γGlu}-QEHPQARKYKGAQKKGLSSGCFGLPLDRIGSLSGLGC-OH; disulfide 21-37), which “Increase … (%) change from day 0” value (mouse metatarsal bones; day 4 in culture) is on record?
A: 37.7%

Q: And the “Increase … (%) change from day 0” value (mouse metatarsal bones; day 7 in culture)?
A: 47.1%

Q: And the “Increase … (%) change from day 0” value (mouse metatarsal bones; day 11 in culture)?
A: 54.4%

Q: And the “Increase … (%) change from day 0” value (mouse metatarsal bones; day 14 in culture)?
A: 57.5%

Q: And the local subcutaneous necrosis [1, 2]?
A: no

Q: And the “assessment” value [1]?
A: acceptable

Q: Which results are given for `CC[C@H](C)[C@@H]1NC(=O)[C@H](CCCNC(=N)N)NC(=O)[C@H](CCC(=O)O)NC(=O)[C@H](CC(C)C)NC(=O)[C@@H]2CCCN2C(=O)[C@H](CC(C)C)NC(=O)CNC(=O)[C@H](Cc2ccccc2)NC(=O)[C@@H](NC(=O)CNC(=O)[C@H](CO)NC(=O)[C@H](CO)NC(=O)[C@H](CC(C)C)NC(=O)CNC(=O)[C@H](CCCCN)NC(=O)[C@H](CCCCN)NC(=O)[C@H](CCC(N)=O)NC(=O)[C@H](C)NC(=O)CNC(=O)[C@H](CCCCN)NC(=O)[C@H](Cc2ccc(O)cc2)NC(=O)[C@H](CCCCN)NC(=O)[C@H](CCCNC(=N)N)NC(=O)[C@H](C)NC(=O)[C@H](CCC(N)=O)NC(=O)[C@@H]2CCCN2C(=O)[C@H](Cc2c[nH]cn2)NC(=O)[C@H](CCC(=O)O)NC(=O)[C@H](CCC(N)=O)NC(=O)CC[C@H](NC(=O)CC[C@H](NC(=O)CC[C@H](NC(=O)CC[C@H](NC(=O)CCCCCCCCCCCCCCCCC(=O)O)C(=O)O)C(=O)O)C(=O)O)C(=O)O)CSSC[C@@H](C(=O)O)NC(=O)CNC(=O)[C@H](CC(C)C)NC(=O)CNC(=O)[C@H](CO)NC(=O)[C@H](CC(C)C)NC(=O)[C@H](CO)NC(=O)CNC1=O` [compound 9483] ({C18 diacid-γGlu-γGlu-γGlu-γGlu}-QEHPQARKYKGAQKKGLSSGCFGLPLERIGSLSGLGC-OH; disulfide 21-37)?
A: Increase in bone length, mean (%) change from day 0 (mouse metatarsal bones; day 4 in culture): 30.2%; Increase in bone length, mean (%) change from day 0 (mouse metatarsal bones; day 7 in culture): 39.5%; Increase in bone length, mean (%) change from day 0 (mouse metatarsal bones; day 11 in culture): 49.7%; Increase in bone length, mean (%) change from day 0 (mouse metatarsal bones; day 14 in culture): 51.5%; local subcutaneous necrosis ([1]; pig, in vivo, sc): no to moderate

Q: For `CC[C@H](C)[C@@H]1NC(=O)[C@H](CCCNC(=N)N)NC(=O)[C@H](CC(=O)O)NC(=O)[C@H](CC(C)C)NC(=O)[C@H](CCCCN)NC(=O)[C@H](CC(C)C)NC(=O)CNC(=O)[C@H](Cc2ccccc2)NC(=O)[C@@H](NC(=O)CNC(=O)[C@H](CCCCN)NC(=O)[C@H](CO)NC(=O)[C@H](CC(C)C)NC(=O)CNC(=O)[C@H](CCCCN)NC(=O)[C@H](CCCCN)NC(=O)[C@H](CCC(N)=O)NC(=O)[C@H](C)NC(=O)CNC(=O)[C@H](Cc2c[nH]cn2)NC(=O)[C@H](CCC(=O)O)NC(=O)COCCOCCNC(=O)COCCOCCNC(=O)CC[C@H](NC(=O)CCCCCCCCCCCCCCCCC(=O)O)C(=O)O)CSSC[C@@H](C(=O)O)NC(=O)CNC(=O)[C@H](CC(C)C)NC(=O)CNC(=O)[C@H](CO)NC(=O)[C@H](CC(C)C)NC(=O)[C@H](CO)NC(=O)CNC1=O` [compound 1235], which local subcutaneous necrosis ([1]; pig, in vivo, sc) is on record?
A: minimal to mild
